# Test results from US20250381195A1, “Methods of Treating Diabetic Macular Edema” (UNM Rainforest Innovations, priority 2024, published 2025).
# Counter-ions that a name gives are not always drawn.
# Test system: HRECs treated with VEGF (human retinal endothelial cells)
# Assay: in vitro permeability / Electrical Cell-Substrate Impedance Sensing (ECIS) assay
# Assay type: cell-based
# Conditions: 50 ng/ml Rec. VEGF, compounds at 10 uM, resistance calculated at the end of 24 hrs
# Method: The 250-um diameter gold electrode measures the ion current in the cell layer and measures the resistance and how the barrier function is altered with VEGF and drug treatment.
# The inventors used the Prestwick chemical library compounds, which consists of a total of 1520 library compounds to check their effectiveness to decrease permeability in HRECs treated with VEGF (FIG. 4). […] The in vitro permeability or Electrical Cell-Substrate Impedance Sensing (ECIS) assay was carried out using Applied biophysics Z theta instrument, using 96W10idf PET plates. The HRECs were first seeded on the plates and the cells were allowed to grow until the desired resistance was achieved (800-1200V), this usually takes 15-18 hrs. After that the cells were treated with 50 ng/ml Rec. VEGF and the compounds at 10 uM concentration. At the end of 24 hrs, the resistance was calculated (an increase in resistance implies decreased permeability).
row,Structure (SMILES),resistance of EC layer (an increase in resistance implies decreased permeability)
1,"N#Cc1ccc(Oc2ccc3c(c2)COB3O)cc1 [Crisaborole, crisaborole]",significant increase in resistance
2,"CNCCCN1c2ccccc2CCc2ccccc21 [Desipramine HCl, desipramine]",significant increase in resistance
3,"OC[C@H]1O[C@@H](c2ccc(Cl)c(Cc3ccc(O[C@H]4CCOC4)cc3)c2)[C@H](O)[C@@H](O)[C@@H]1O [Empaglifozin, empagliflozin]",significant increase in resistance
4,"CN(C)CCN(Cc1cccs1)c1ccccn1 [Methapyrilene, methapyrilene]",increased resistance
5,"c1ccc2c(CC3=NCCN3)cccc2c1 [Naphazoline HCl, naphazoline]",increased resistance
6,"O=[N+]([O-])c1ccc(O)c2ncccc12 [Nitroxolone, nitroxolone]",significant increase in resistance
7,"Cc1ccc(N(CC2=NCCN2)c2cccc(O)c2)cc1 [Phentolamine, phentolamine]",increased resistance
8,"CNCCCC1c2ccccc2C=Cc2ccccc21 [Protriptyline HCl, protriptyline]",significant increase in resistance
9,"Cc1noc(NS(=O)(=O)c2ccc(N)cc2)c1C [Sulfisoxazole, sulfisoxazole]",increased resistance
10,"CC(C(=O)O)c1ccc(C(=O)c2cccs2)cc1 (stereo not shown) [Suprofen, suprofen]",increased resistance
